Results from patent publication US20240034761A1, “REGENERATION OF MAMMALIAN TISSUES USING SYNTHETIC IMMODULINS” (priority 2022, published 2024).
Marks after values point to notes of the source that are not given here. Square brackets hold non-standard residues; d marks the D form. Ends that are not written are not given here. Peptide text beside a SMILES is read from it.

Columns and labels:
[1] = tested on: THP1-Dual monocyte reporter cell line; experiment: THP1-Dual myeloid cell differentiation assay (PMA protocol); format: cell-based, human; conditions: PMA 24 h, then peptide 0.33 uM or 0.66 uM 24 h; for CD169+ (AU) / Clec12A(AU): relative to immX3AVD = 100; for CCL22: culture supernatant
Procedure: (§1) Mammalian cell differentiation assays employed the THP1-Dual monocyte reporter cell line (Invivogen Inc, San Diego, CA) seeded at 2×10e5 cells per well in 96-well plates and cultured at 37 degrees C. in RPMI-1640 growth medium plus 10% fetal bovine serum and 1% penicillin/streptomycin. Cells were subsequently treated for 24 hours with 100 ng/ml Phorbol 12-myristate 13-acetate (PMA protocol; Cayman Chemical Company, Ann Arbor, MI). Peptide (0.33 uM or 0.66 uM, as indicated) was then added, and incubation continued for an additional 24 hours. Culture supernatants were assayed for CCL22. Plates with adherent cells were washed with PBS and assayed for immunoreactivity of surface markers such as CD169, Clec9a or Clec12a using fuorescent tag- or biotin-labeled anti-human antibodies purchased from Miltenyi Biotec (Auburn, CA) and the secondary detection reagent recommended by the manufacturer.

[2] = PIP-binding membrane assay (Membrane Lipid Strips); set-up: key: —: −−− no binding; +++ strong binding; conditions: 400 ng peptide
Procedure: N-terminally biotinylated versions of the peptides listed below were used in various assays listed in the examples. For the two types of phosphatidylinositon phosphate (PIP)-binding assays, imm1-imm6 peptides were used.
In the PIP-binding membrane assay, 400 ng of each peptide was bound to Membrane Lipid Strips (Catalog # P-6002, Echelon Biosciences, Salt Lake City, UT) and developed according to the manufacturer's instructions. Binding to PIPs was as follows (−−− no binding; +++ strong binding): […]

[3] = Plate binding of FITC-labelled hyaluronic acid to immobilised biotinylated peptides; conditions: 400 ng peptide/well, 1 ug FITC-HMW-HA, PBS; normalized to immX3 peptide binding = 100
Procedure: (§2) Effects of pH, PIP2 and size classes: Streptavidin-coated 96-well plates (G-Biosciences, St. Louis, MO) were pre-loaded with biotinylated peptides [see Example 1] at 400 ng/well, at room temperature for 60 minutes. The plate was washed with PBS buffer and then 1 ug FITC-labelled heparin or hyaluronic acid (FITC-HMW-HA) in 100 uL PBS buffer was added per well (all tests done in quadruplicate). Incubation proceeded for 90 minutes at room temperature, followed by two PBS washes. The plate was read in a standard laboratory fluorometer (488/525 nm exitation/[…]) and the counts normalized for immX3 peptide binding=100. Values statistically above background are shown in bold font. **p<0.05 versus immX3AVD.

[4] = Plate binding of FITC-labelled heparin to immobilised biotinylated peptides; conditions: 400 ng peptide/well, 1 ug FITC-heparin, PBS; normalized to immX3 peptide binding = 100
Procedure: as §2

[5] = tested on: HFF-1 human fibroblast cell line; experiment: Collagen stimulating activity in HFF-1 dermal fibroblasts (Collagen-1 ELISA); format: cell-based; conditions: peptide 2 uM, 72 hour; control (buffer) set to 100
Procedure: Immodulin peptides have potential untility in the field of cosmetics. HFF-1 human fibroblast cell line was obtained from the American Type Culture Collection (ATCC). Cells were grown in a T-75 flask in DMEM Medium containing 10% fetal bovine serum and penicillin-streptomycin at 37° C. in a humidified, 5% CO2 incubator. Cells ([…], 2,000 cells/well) were plated in a 96-well plate and incubated overnight at 37° C. in a humidified, 5% CO2 incubator. Next day, […] of compounds were added (quadruplicate wells). After 72 hour incubation with the compound, supernatants were collected for Collagen-1 ELISA assay and cell viability was measured in a luminometer after the addition of […] CellTiterGlo reagent (Promega Inc, Madison, WI) as recommended by the manufacturer. Collagen stimulating activity of immodulin peptides in HFF-1 dermal fibroblasts: Peptides were added to cells at 2 uM. Collagen-1A1 (COL1) immunoreactivity was measured in the supernatants of cultured cells by ELISA using a rabbit monoclonal anti-COL1 primary antibody (Abcam, Cambridge, MA). Control (buffer) value of immunoreactivity was set to 100.

[6] = tested on: C2C12 myoblastic cell line; experiment: C2C12 myoblast differentiation, creatine kinase; format: cell-based; conditions: 0.66 uM peptide, 96 hours; helper none; relative to immX3AVD = 100
Procedure: Differentiation assays employed the C2C12 myoblastic cell line (ATCC, Manassas, VA) seeded at 2×10e5 cells per well in 96-well plates and cultured at 37 degrees C. in DMEM growth medium plus 10% fetal bovine serum and 1% penicillin/streptomycin. For differentiation, 10% fetal bovine serum was replaced with 2% horse serum. 0.66 uM peptide was then added, and incubation continued for an additional 96 hours. Plates with adherent cells were washed with PBS, lysed with Lytic-M buffer (Sigma Chemical Company, St. Louis, MO) and the lysates were assayed for creatine kinase using a kit purchased from Bioassay Systems (Cat. #ECPK-100, Hayward, CA). Effects were visually confirmed with microscopy tracking myotube formation. Results were expressed as units per milliliter relative to the control immX3AVD peptide, and p values were also calculated and shown relative to control immX3AVD peptide (** p<0.05 versus immX3AVD control; avg±SD).

[7] = tested on: Primary human T-cells pre-selected for recognizing GAD65 peptide antigen; experiment: GAD65-specific primary T-cell differentiation on peptide-treated THP1-Dual cells; format: cell-based; conditions: peptide 0.66 uM, GAD65 1 ug/ml; for FoxP3 (AU): cell extracts, immX3AVD = 100
Procedure: as §1
Another non-myeloid lineage was also tested. Primary human T-cells pre-selected for recognizing GAD65 peptide antigen, and the peptide antigen itself were purchased from Cellero LLC (Memphis, TN). THP1-Dual cells were treated with both GAD65 peptide antigen (1 ug/ml) and immodulin peptide (0.66 uM) using the protocol described in Example 2. After completion of the myeloid cell differentiation step (24 hours), supernatants were collected and 100,000 primary T-cells were added to each well in RPMI-1640 medium (100 uL per well). Plates were incubated for an additional 96 hours and cell extracts were prepared using CellLytic-M reagent (Sigma Chemical Co., St Louis, MO). Supernatants were assayed for CCL22, IL-10 and TGFbeta, and cell extracts assayed for FoxP3, all by ELISA using reagents from R&D Systems, Minneapolis, MN. The results are shown in the table below (**p<0.05 vs immX3AVD, set to=100): […]

[8] = Second binding experiment: FITC-HMW-HA binding with holotransferrin, pH and cold competitors; set-up: key to FITC-HMW-HA binding, +cold LMW-HA / FITC-HMW-HA binding, +cold HMW-HA: fluorescence counts normalized to peptide binding control = 100; conditions: holotransferrin 10 ug/well; for FITC-HMW-HA binding, +cold HMW-HA: HMW-HA 10 ug/well; for FITC-HMW-HA binding, +cold LMW-HA: LMW-HA hexamer 10 ug/well; for FITC-HMW-HA binding, +cold PIP2: excess PIP2 500 ng/well
Procedure: as §2
A second binding experiment was done as above, but using either 6 mM sodium phosphate buffer pH 7.4 or sodium citrate buffer pH 5.2 in the presence of FITC-HMW-HA (1.5 ug/well), holotransferrin (10 ug/well) and excess PIP2 (500 ng/well), LMW-HA (hexamer; 10 ug/well) or HMW-HA (10 ug/well). **p<0.05 versus peptide binding control (=100);

CSCC[C@H](NC(=O)[C@H](CCCCN)NC(=O)[C@H](CS)NC(=O)[C@H](CCC(N)=O)NC(=O)[C@H](CCCCN)NC(=O)[C@H](CC(C)C)NC(=O)[C@H](CC(N)=O)NC(=O)[C@H](Cc1ccc(O)cc1)NC(=O)[C@H](CC(C)C)NC(=O)CNC(=O)[C@H](Cc1c[nH]cn1)NC(=O)[C@@H](N)CCCCN)C(=O)N[C@@H](CO)C(=O)N[C@@H](CC(C)C)C(=O)N[C@@H](CC(N)=O)C(=O)NCC(=O)N[C@@H](CCC(N)=O)C(=O)N[C@@H](CCCNC(=N)N)C(=O)NCC(=O)N[C@@H](CCC(=O)O)C(=O)N[C@@H](CS)C(=O)N[C@@H](Cc1c[nH]c2ccccc12)C(=O)O [imm2]
CD169+ (AU) [1]: 3.0 ± 0.5 AU
Binding to Phosphatidylinositol [2]: —
Binding to PtdIns(3,4,5)P [PIP3] [2]: —
Binding to PtdIns(4)P [PIP1] [2]: —
Binding to PtdIns(4,5)P [PIP2] [2]: —
Hyaluronate binding (fluorescence counts) [3]: 3.1 ± 9.8
Heparin binding (fluorescence counts) [4]: 27.4 ± 22.9

N=C(N)NCCC[C@H](NC(=O)[C@H](CCCNC(=N)N)NC(=O)[C@H](CCC(N)=O)NC(=O)CNC(=O)[C@H](CCC(N)=O)NC(=O)[C@H](CO)NC(=O)[C@H](CO)NC(=O)[C@H](CCCNC(=N)N)NC(=O)[C@H](CS)NC(=O)[C@H](CCC(N)=O)NC(=O)[C@H](CCCNC(=N)N)NC(=O)[C@H](CCCCN)NC(=O)[C@H](CCCNC(=N)N)NC(=O)[C@H](Cc1ccc(O)cc1)NC(=O)[C@H](Cc1ccccc1)NC(=O)CNC(=O)[C@H](CCCNC(=N)N)NC(=O)[C@@H](N)Cc1c[nH]cn1)C(=O)NCC(=O)N1CCC[C@H]1C(=O)N[C@@H](CS)C(=O)N[C@@H](Cc1c[nH]c2ccccc12)C(=O)O [imm6] (H-HRGFYRKRQCRSSQGQRRGPCW-OH)
CD169+ (AU) [1]: 19.9 ± 2.3 AU
Binding to Phosphatidylinositol [2]: —
Binding to PtdIns(3,4,5)P [PIP3] [2]: —
Binding to PtdIns(4)P [PIP1] [2]: —
Hyaluronate binding (fluorescence counts) [3]: 44.9 ± 14.1**
Heparin binding (fluorescence counts) [4]: 97.2 ± 17.3

AFNSYELGSKGFYKKKQCRPSKGRKRGFCW [imm3K9]
COL1 (Collagen-1A1 immunoreactivity in supernatant) [5]: 155**

AFNSYELGSKGFYKKKQCRPSKGRKRGFCWAVDKY [imm3K9c]
COL1 (Collagen-1A1 immunoreactivity in supernatant) [5]: 158**

AFNSYELGSKKGFYKKKQCRPSKGRKRGFCW [imm3K9.1]
COL1 (Collagen-1A1 immunoreactivity in supernatant) [5]: 156**

FNSYELGSLKKGFYKKKQCRPSKGRKRGFCW [imm3K8]
COL1 (Collagen-1A1 immunoreactivity in supernatant) [5]: 98

KKGFYKKKQCRPSKGRKRGFCW(dA)(dV)(dD) (KKGFYKKKQCRPSKGRKRGFCW[dA][dV][dD]; cysteine pairing not given here) [immX3dAdVdD]
CD169+ (AU) [1]: 183.3 ± 6.4 AU
Clec12A(AU) [1]: 106.6 ± 5.2 AU
Hyaluronate binding (fluorescence counts) [3]: 104.2 ± 14.7
Heparin binding (fluorescence counts) [4]: 55.5 ± 5.7**
Creatine Kinase Act. [6]: 132.8 ± 5.2** units per milliliter

KKGFYKKKQCRPSKGRKRGFCW(dS)(dV)(dD) (KKGFYKKKQCRPSKGRKRGFCW[dS][dV][dD]; cysteine pairing not given here) [immX3dSdVdD]
CD169+ (AU) [1]: 145.7 ± 9.3 AU
FoxP3 (AU) [7]: 176.6 ± 8.0** AU
CCL22 ([7]; supernatant): 77.8 ± 2.0 pg/mL
IL-10 ([7]; supernatant): 1534 ± 176.4 pg/mL
TGFb ([7]; supernatant): 87.6 ± 10.7 pg/mL
Creatine Kinase Act. [6]: 155.6 ± 14.1** units per milliliter

RKGFYKRKQCKPSRGRKRGICWAVD [immX5AVD]
CD169+ (AU) [1]: 100.9 ± 3.5 AU
CCL22 [1]: 228.6 ± 8.1 pg/mL
FoxP3 (AU) [7]: 14.8 ± 4.3** AU
CCL22 (pg/ml) ([7]; supernatant): 58.7 ± 2.7** pg/ml
IL-10 (pg/ml) ([7]; supernatant): 870 ± 8.2** pg/ml
TGFb (pg/ml) ([7]; supernatant): 52.8 ± 7.4** pg/ml
Hyaluronate binding (fluorescence counts) [3]: 113.9 ± 15.7
Heparin binding (fluorescence counts) [4]: 68.7 ± 26.2
FITC-HMW-HA binding, CONTROL ([8]; pH 5.2): 66.6 ± 7.2**
FITC-HMW-HA binding, +cold HMW-HA ([8]; pH 5.2): 9.6 ± 6.5**
FITC-HMW-HA binding, +cold LMW-HA ([8]; pH 5.2): 76.8 ± 5.9
FITC-HMW-HA binding, +cold PIP2 ([8]; pH 5.2): 52.8 ± 4.0**
FITC-HMW-HA binding, +cold HMW-HA ([8]; pH 7.4): 22.6 ± 8.8**
FITC-HMW-HA binding, +cold LMW-HA ([8]; pH 7.4): 94.9 ± 11.4
FITC-HMW-HA binding, +cold PIP2 ([8]; pH 7.4): 53.7 ± 2.1**
FITC-HMW-HA binding, CONTROL ([8]; pH 7.4, peptide binding control = 100): 100.0 ± 7.6

RNGNFHPKQCHPALDGQRGKCWAVD [immX4AVD]
CD169+ (AU) [1]: 1.0 ± 0.3 AU
Hyaluronate binding (fluorescence counts) [3]: 61.1 ± 34.1
Heparin binding (fluorescence counts) [4]: 7.3 ± 17.1

SLNPEWNETKGFYKKKQCRPSKGRKRGFCW(dA)(dV)(dD) (SLNPEWNETKGFYKKKQCRPSKGRKRGFCW[dA][dV][dD]; cysteine pairing not given here) [immX3K1dAdVdD]
CD169+ (AU) [1]: 249.3 ± 13.9 AU
Clec12A(AU) [1]: 321.9 ± 25.6 AU
CCL22 [1]: 135.8 ± 24.2 pg/mL
Hyaluronate binding (fluorescence counts) [3]: 101.9 ± 16.4
Heparin binding (fluorescence counts) [4]: 56.0 ± 7.3**
